# Assay results from PMC9400670, “Establishing the selective phospholipid membrane coordination, permeation and lysis properties for a series of ‘druggable’ supramolecular self-associating antimicrobial amphiphiles” (Chemical Science, 2022).
# Test system: human intestinal Caco-2 cells
# Assay: Caco-2 permeability assay
# Format: in vitro ADME
# Experimental: Section 4: DMPK Methods and Further Discussion […]
# Caco-2 Permeability studies: The permeability assay for SSA 1-6 and 10 was performed at Cyprotex Discovery Limited (Macclesfield, UK) and analysed at Cancer Research Horizons. SSA 1-6 and 10 were incubated at a final concentration of 10 uM with human intestinal Caco-2 cells at 37°C, 5% CO2 with a relative humidity of 95%. After 120 minutes the apical compartment inserts and the companion plates were separated, and the apical and basolateral samples were transferred. Incubations were conducted in duplicate and the fluorescent membrane integrity marker; Lucifer Yellow was co-incubated with the SSA compounds at the start of the assay. Compounds of known permeability were used as controls and were within acceptance criteria. Further processing is described in:
# Sample preparation and liquid chromatography-mass spectrometry analysis.
# Sample preparation and liquid chromatography-mass spectrometry analysis: All samples were centrifuged at 3500 rpm at 4°C for 10 min to precipitate protein and enable sampling of supernatant prior to appropriate dilution for liquid chromatography-mass spectrometry (LC-MS/MS analysis). […]
# (1.5 µm, 50 x 2.1 mm) at a temperature of 40°C and a binary mobile phase gradient at a flow rate of […]
# 0.4 mL/min. […]
# For the purpose of apparent permeability determination, samples were analysed using a Waters I-Class ultra-high-performance liquid chromatography (UHPLC) system coupled to a Waters Vion mass spectrometer (Waters, Elstree, UK). Separation of analytes was achieved used an Accucore Vanquish C18+ column (1.5 µm, 50 x 2.1 mm) at a temperature of 40°C and a binary mobile phase gradient at a flow rate of 0.4 mL/min. Initial LC conditions for SSA 1-4 comprised 66% solvent A (0.1% formic acid + 5 mM ammonium acetate in water), 33% solvent B (0.1% formic acid + 5 mM ammonium acetate in methanol); this was ramped to 63% B at 1.8 min and 95% B at 1.9 min, held for 0.5 min and then immediately returned to initial conditions and held for the remaining 0.5 min of the method. Initial LC conditions for SSA 5-10 comprised 54% solvent A (0.1% formic acid + 5 mM ammonium acetate in water), 46% solvent B (0.1% formic acid + 5 mM ammonium acetate in methanol); this was ramped to 67% B at 1.8 min and 95% B at 1.9 min, held for 0.5 min and then immediately returned to initial conditions and held for the remaining 0.5 min of the method.
# Sample analysis was by electrospray ionisation in negative ion mode. The capillary voltage was 2.5 kV, desolvation gas was 600°C.
# For the purpose of PK determination of SSA 5, samples were analysed using a Waters I-Class ultra-high-performance liquid chromatography (UHPLC) system coupled to a Waters Xevo TQ-XS mass spectrometer. Separation of analytes was achieved using an Accucore Vanquish C18+ column (1.5 µm, 50 x 2.1 mm) at a temperature of 40°C and a binary mobile phase gradient at a flow rate of 0.4 mL/min. Initial LC conditions comprised 54% solvent A (0.1% formic acid + 5 mM ammonium acetate in water), 46% solvent B (0.1% formic acid + 5 mM ammonium acetate in methanol); this was ramped to 67% B at 1.8 min and 95% B at 1.9 min, held for 0.5 min and then immediately returned to initial conditions and held for the remaining 0.5 min of the method. Sample analysis was by electrospray ionisation combined with multiple reaction monitoring in negative ion mode. The […]
# Mean blood concentration-time profile: Within these studies SSAs 3 and 5 were dosed at 1 mg/kg, to female CD-1 mice (n=9 per SSA) via an intravenous tail vein bolus dose formulation as solutions in 2 % DMSO/98 % water. Blood taken from the mouse tail vein was extracted by protein precipitation.
# SSA concentrations were calculated through UPLC-MS/MS techniques, with tolbutamide as the internal standard. The assay met the acceptance criteria with >7 calibration standards within ± 20% of nominal concentration. The lower limit of quantitation was 2 ng/mL for both compounds. PK […]
# [1] = % SSA recovered from the assay after 2 hours
smiles,measurement,setting,value
O=C(NCS(=O)(=O)O)Nc1ccc(C(F)(F)F)cc1 [SSA 3],Recovery (A-B),[1],99%
same,Recovery (B-A),[1],98%
same,Papp (B-A),"Caco-2, 10 uM, 120 minutes, n = 2 technical repeats",5.6 ×10⁻⁶ cm/s
same,Papp (B-A) class,"Caco-2, in words",moderate
